Laboratory results: ChEMBL document CHEMBL3886313, “Ketone linked benzothiazole inhibitors of endothelial lipase” (2015)

Biological target: T1, Endothelial lipase (Homo sapiens, UniProt Q9Y5X9)
T1 sequence (Q9Y5X9 whole entry): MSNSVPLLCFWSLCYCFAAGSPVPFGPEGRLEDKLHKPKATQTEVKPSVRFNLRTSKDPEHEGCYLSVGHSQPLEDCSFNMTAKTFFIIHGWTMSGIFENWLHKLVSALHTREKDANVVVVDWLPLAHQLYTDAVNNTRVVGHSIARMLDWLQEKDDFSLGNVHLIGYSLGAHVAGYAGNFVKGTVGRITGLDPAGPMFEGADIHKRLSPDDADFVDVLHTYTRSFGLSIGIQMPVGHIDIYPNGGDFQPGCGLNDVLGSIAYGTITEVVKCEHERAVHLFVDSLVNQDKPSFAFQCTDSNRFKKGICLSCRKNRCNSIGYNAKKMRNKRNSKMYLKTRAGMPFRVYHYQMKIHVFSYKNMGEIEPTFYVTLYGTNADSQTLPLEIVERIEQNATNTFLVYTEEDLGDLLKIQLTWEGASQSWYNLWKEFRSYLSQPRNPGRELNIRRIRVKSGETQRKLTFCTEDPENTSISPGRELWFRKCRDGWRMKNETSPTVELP
Test: Enzymatic Assay: The enzymatic assay was measured using white, opaque 96-well half area plates. Each well contained 60 μL of assay buffer (50 mM HEPES pH 8.0, 50 mM NaCl and 1 mM CaCl2) and 2 ul of a DMSO solution containing compound of interest. Conditioned media obtained from HT-1080 cells, which were transformed by RAGE technology (Athersys) to overexpress endogenous EL, was added and the reaction was allowed to incubate for 20 min at 37° C. with gentle agitation. The reaction was started by the addition of 20 μL of a 1:4 dilution of vesicles. The final total reaction volume was 100 μL. The reaction rates were measured on a Gemini plate reader with an excitation wavelength of 488 nm and an emission of 530 nm. Readings were taken every 20 seconds for 10 min with agitation between each reading.
Format: cell-based

For C[C@@H](NC(=O)OC(C)(C)C)c1nnc(C(=O)c2nc3ccc(-c4ccccc4)cc3s2)o1, the IC50 was < 0.01 µM.

In the case of O=C1NC(=O)C(Cc2nnc(C(=O)c3nc4ccc(-c5ccccc5)cc4s3)o2)S1 (stereo not given), the IC50 is reported as < 0.01 µM.

COc1nc(-c2nnc(C(=O)c3nc4ccc(-c5ccc(F)cc5)cc4s3)o2)c(OCc2ccccc2)c(=O)[nH]1 was tested, and the IC50 was 0.122 µM.

COc1nc(-c2nnc(C(=O)c3nc4ccc(-c5ccccc5)cc4s3)o2)c(OCc2ccccc2)c(=O)[nH]1 was tested, and the IC50 was 0.076 µM.

For NS(=O)(=O)Cc1nnc(C(=O)c2nc3ccc(-c4ccccc4)cc3s2)o1, the IC50 was < 0.01 µM.

CC1(Cc2nnc(C(=O)c3nc4ccc(-c5ccccc5)cc4s3)o2)NC(=O)N(CC(F)(F)F)C1=O (stereo not given) was tested, and the IC50 was < 0.01 µM.

C[C@H](NC(=O)OC(C)(C)C)c1nnc(C(=O)c2nc3ccc(-c4ccccc4)cc3s2)o1 showed an IC50 of 0.066 µM.

With CC(C)(C)CN1CC(c2nnc(C(=O)c3nc4c(F)cc(-c5ccccc5)cc4s3)o2)C1 the IC50 was 0.018 µM.

In the case of O=C1NC(=O)C(Cc2nnc(C(=O)c3nc4ccc(-c5ccccc5)cc4s3)o2)N1 (stereo not given), the IC50 is reported as < 0.01 µM.

CC(C)(C)CN1CC(c2nnc(C(=O)c3nc4ccc(-c5ccc(F)cc5)cc4s3)o2)C1 gave an IC50 of 0.0048 µM.
